# Source: patent US20230181659A1, “PHAGE-MEDIATED DELIVERY OF GENES TO GUT MICROBIOME” (priority 2020, published 2023)
# Experiments:
# [1] = system: Sm^R E. coli MG1655 or W1655 F+; assay: Eradication of sensitive E. coli colonizing the mouse gut by carbenicillin water; format: in vivo
# Method: (§1) Mouse experiments with E. coli engraftment, antibiotic water, and phage treatment. Animal procedures were approved by the University of California, San Francisco (UCSF) Institutional Animal Care and Use Committee (IACUC), and animal experiments performed were in compliance with ethical regulations. Specific pathogen free female BALB/c mice from the vendor Taconic were used for all mouse experiments. Streptomycin water was prepared by dissolving USP grade streptomycin sulfate (VWR 0382) in autoclaved tap water to a final concentration of 5 mg/ml and passing through 0.45 μm filtration units. Mice were provided streptomycin water for 1 day, followed by oral gavage of 0.2 ml containing approximately 10^9 CFU of streptomycin-resistant E. coli. Mice were kept on streptomycin water thereafter to maintain colonization. For selection with β-lactam antibiotics, USP grade ampicillin sodium salt (Teknova A9510) or USP grade carbenicillin disodium salt (Teknova C2110) was also dissolved in the water to a final concentration of 1 mg/ml; carbenicillin was preferred for its increased stability over ampicillin (Bobrowski, M. & Borowski, E. et al., Microbiology, 68, 263-272 (1971)). Drinking water containing streptomycin was prepared fresh weekly; with the addition of a β-lactam antibiotic, it was prepared fresh every 3-4 days. For phage treatment, filtered phage solutions stored at −80° C. were thawed and used directly for oral gavage. Unfiltered phage solutions were precipitated by diluting approximately 5-fold in PBS, adding 0.2 volumes phage precipitation solution (20% PEG-8000, 2.5 M NaCl), incubating for 15 min on ice, pelleting at 15,000-21,000 g for 15 min at 4° C., resuspending in PBS, centrifuging to pellet insoluble matter, and filtering through 0.45 μm. Heat-inactivated phage were prepared by incubating 1 ml aliquots at 95° C. in a water bath for 30 min. Streptomycin-treated mice colonized with Sm^R E. coli were orally gavaged with 0.2 ml of phage and placed on drinking water containing both streptomycin and carbenicillin.
# Enumeration and culture of E. coli from mouse feces. […]
# [2] = Carbenicillin bioassay of culture supernatants; details: co-cultures expressing β-lactamase; 4 hours of growth; detection limit approximately 2.5 μg/ml
# Method: Carbenicillin bioassay. Cultures were sampled over time, cells were pelleted at 21,000 g for 1 min, and the supernatant was transferred to a new tube and frozen at −20° C. until all timepoints were collected. The supernatants were thawed and assayed using a Kirby-Bauer disk diffusion test. An overnight culture of the indicator organism (Bacillus subtilis 168) was diluted in saline to an OD600 of 0.1. A cotton swab was dipped into this dilution and spread across LB agar, antibiotic sensitivity disks (Fisher Scientific S70150A) were overlaid using tweezers, and 20 μl of the supernatant was applied to the disk. At the same time, carbenicillin standards were prepared from 1 μg/ml to 100 μg/ml and also applied to discs. Plates were incubated overnight at 37° C. and imaged the following morning.
# Sm^R MG1655 E. coli = assay: Selection of resistant E. coli subpopulation in mouse gut with β-lactam in drinking water; format: in vivo; details: mice on water containing streptomycin and ampicillin; gavaged 99.9% Amp^S / 0.1% Amp^R; within 1-2 days
# Method: as §1, with “For phage treatment, filtered phage solutions stored at −80° C. were thawed and used directly for oral gavage. Unfiltered phage solutions were precipitated by diluting approximately 5-fold in PBS, adding 0.2 volumes phage precipitation solution (20% PEG-8000, 2.5 M NaCl), incubating for 15 min on ice, pelleting at 15,000-21,000 g for 15 min at 4° C., resuspending in PBS, centrifuging to pellet insoluble matter, and filtering through 0.45 μm. Heat-inactivated phage were prepared by incubating 1 ml aliquots at 95° C. in a water bath for 30 min. Streptomycin-treated mice colonized with Sm^R E. coli were orally gavaged with 0.2 ml of phage and placed on drinking water containing both streptomycin and carbenicillin.” left out
# gut microbiota = assay: 16S rRNA gene sequencing of streptomycin-treated mice; format: in vivo; details: streptomycin water 5 mg/ml
# Method: 16S rRNA gene sequencing. Mouse fecal pellets were stored at −80° C. DNA was extracted from single pellets using a ZymoBIOMICS 96 MagBead DNA Kit and 16S rRNA gene sequencing was performed using a dual indexing strategy (Gohl, D. M. et al., Nat. Biotechnol. 34, 942-949 (2016)). Briefly, a 22-cycle primary PCR was performed using KAPA HiFi Hot Start DNA polymerase (KAPA KK2502) and V4 515F/806R Nextera primers. The reaction was diluted in UltraPure DNase/RNase-free water (Life Tech 0977-023) and used as template for a 10-cycle secondary (indexing) PCR using sample-specific dual indexing primers. […] The DNA was gel extracted using a MinElute Gel Extraction Kit (Qiagen 28604), quantified by qPCR using a KAPA Library Quantification Kit for Illumina Platforms (KAPA KK4824), and paired-end sequenced on the Illumina MiSeq platform. Data were processed using a 16S rRNA gene analysis pipeline (https://github.com/jbisanz/AmpliconSeq) based on QIIME2 (Bolyen, E. et al., Nat. Biotechnol. 37, 852-857 (2019)) incorporating DADA2 (Callahan, B. J. et al., Nat. Methods, 13, 581-583 (2016).), and analyzed using R packages qiime2R v0.99.23 (https://github.com/jbisanz/qiime2R), phyloseq v1.33.0 (McMurdie, P. J. & Holmes, S., PLoS One, 8, e61217 (2013)), and phylosmith v1.0.4 (Smith, S. D., Journal of Open Source Software 4, 1442 (2019)). […]
compound,measurement,setting,value
CC1(C)S[C@@H]2[C@H](NC(=O)C(C(=O)O)c3ccccc3)C(=O)N2[C@H]1C(=O)O (stereo partly drawn) [carbenicillin],E. coli colonization level over the course of treatment,"[1]; all mice, below limit of detection",< 10^2 CFU/g
same,mice with recolonization when selection was lifted,[1]; carbenicillin removed on Day 7,5/6
same,median E. coli colonization level,"[1]; first day of carbenicillin in water, decreased from 9.6×10^9",2.0×10^3 CFU/gram feces
same,carbenicillin in culture supernatants,[2],not detectable
CC1(C)S[C@@H]2[C@H](NC(=O)[C@H](N)c3ccccc3)C(=O)N2[C@H]1C(=O)O [ampicillin],increase in the percent of Amp^R E. coli in feces,Sm^R MG1655 E. coli,3 orders of magnitude
[H]/N=C(/N)N[C@H]1[C@H](O)[C@@H](O)[C@H](O[C@@H]2O[C@@H](C)[C@](O)(C=O)[C@H]2O[C@@H]2O[C@@H](CO)[C@H](O)[C@@H](O)[C@@H]2NC)[C@@H](N/C(N)=N\[H])[C@@H]1O [streptomycin],effect on gut microbial community,gut microbiota,altered gut microbial community structure while decreasing diversity and colonization level
